Experimental findings from patent publication US5684032A, “Compounds” (SmithKline Beecham Corporation, priority 1995, dated 1997) are described below.

In experiment [1] the test system is recombinant human IL-8 type β receptor (IL-8Rβ, Type II, permissive receptor). Put plainly: [125I] IL-8 receptor binding assay, IL-8Rβ (Type II, permissive) CHO membranes. Particulars: IL-8Rβ (type II) receptor binding assay. An excerpt: (§1) [^125 I] IL-8 (human recombinant) was obtained from Amersham Corp., Arlington Heights, Ill., with specific activity 2000 Ci/mmol. All other chemicals were of analytical grade. High levels of recombinant human IL-8 type α and β receptors were individually expressed in Chinese hamster ovary cells as described previously (Holmes, et al., Science, 1991, 253, 1278). The Chinese hamster ovary membranes were homogenized according to a previously described protocol (Kraft, et al., Nature, 1983, 301, 621). Membrane protein concentration was determined using Pierce Co. micro-assay kit using bovine serum albumin as a standard. All assays were performed in a 96-well micro plate format. Each reaction mixture contained ^125 I IL-8 (0.25 nM), 0.5 μg/mL of IL-8Rα or 1.0 μg/mL of IL-8Rβ membranes in 20 mM Bis-Trispropane and 0.4 mM Tris HCl buffers, pH 8.0, containing 1.2 mM MgSO4, 0.1 mM EDTA, 25 mM NaCl and 0.03% CHAPS plus peptide at relevant concentrations. The assay was initiated by addition of ^125 I-IL-8. After 1 hour at room temperature the plate was harvested using a Tomtec 96-well harvester onto a glass fiber filtermat blocked with 1% polyethyleneimine/0.5% BSA and washed 3 times with 25 mM NaCl, 10 mM TrisHCl, 1 mM MgSO4, 0.5 mM EDTA, 0.03% CHAPS, pH 7.4. The filter was then dried and counted on the Betaplate liquid scintillation counter. […]

Experiment [2] has as its system recombinant human IL-8 type α receptor (IL-8Rα, Type I, non-permissive receptor). Put plainly: [125I] IL-8 receptor binding assay, IL-8Rα (Type I, non-permissive) CHO membranes. The conditions noted are these: IL-8Rα (type I) receptor binding assay.
Source text: as §1

Consider `O=C(O)c1c(-c2ccccc2)c2ccccc2n1Cc1ccc(OC(F)(F)F)cc1`, for which the “inhibition of IL-8 binding, result in words” value in experiment [1] and in experiment [2] was “not active” each time.
